In ChEMBL document CHEMBL5360644, “Structure-Activity Relationship Studies of 2,4,5-Trisubstituted Pyrimidine Derivatives Leading to the Identification of a Novel and Potent Sirtuin 5 Inhibitor against Sepsis-Associated Acute Kidney Injury” (J Med Chem, 2023) one finds IC50, ΔTm and Tm data, which are given here for 63 compounds.

*1 amine or outer side, *2 acyl side, *3 side chain or, on linkers, in order; H or OH if unused. Where a SMILES comes first, the peptide text is derived from it. The star is where a group is joined. AMC = Cc1cc(=O)oc2cc(N*)ccc12; Suc = O=C(CCC(=O)[*:2])[*:1]

For assay [1], the target named is T1, NAD-dependent protein deacylase sirtuin-5, mitochondrial (Homo sapiens, UniProt Q9NXA8). Nature of the assay: Inhibition of human SIRT5 (34 to 269 residues) using Ac-Leu-Gly-Ser-Lys (Su)-AMC as fluorogenic substrate in presence of NAD+.
Target sequence in this assay (Q9NXA8 whole entry, the tested form may be a part): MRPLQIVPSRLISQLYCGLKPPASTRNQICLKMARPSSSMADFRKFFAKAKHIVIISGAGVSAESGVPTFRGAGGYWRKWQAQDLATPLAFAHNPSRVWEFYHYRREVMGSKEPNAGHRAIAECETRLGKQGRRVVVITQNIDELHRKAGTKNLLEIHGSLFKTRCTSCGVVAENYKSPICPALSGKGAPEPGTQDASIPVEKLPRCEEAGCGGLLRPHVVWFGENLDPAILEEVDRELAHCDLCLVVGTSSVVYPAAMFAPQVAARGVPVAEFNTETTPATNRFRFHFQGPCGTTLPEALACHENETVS
Assay [2] has as its target T1, NAD-dependent protein deacylase sirtuin-5, mitochondrial. The assay can be described thus: Binding affinity to human SIRT5 (34 to 269 residues) assessed as thermal stabilization by measuring change in melting temperature at 60 uM incubated for 10 mins in presence of NAD+ by SYPRO orange dye based thermal shift assay.
Target sequence in this assay (Q9NXA8 37-310 limits assumed): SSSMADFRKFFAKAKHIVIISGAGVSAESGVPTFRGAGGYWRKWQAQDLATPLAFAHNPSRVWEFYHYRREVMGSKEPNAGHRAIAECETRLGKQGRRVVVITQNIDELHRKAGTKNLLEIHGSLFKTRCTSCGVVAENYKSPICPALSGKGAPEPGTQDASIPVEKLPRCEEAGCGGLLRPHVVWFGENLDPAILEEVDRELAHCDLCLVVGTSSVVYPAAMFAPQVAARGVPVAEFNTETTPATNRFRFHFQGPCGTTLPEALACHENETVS
Assay [3] shares this target. Nature of the assay: Binding affinity to human SIRT5 (34 to 269 residues) assessed as thermal stabilization by measuring melting temperature at 60 uM incubated for 10 mins in presence of NAD+ by SYPRO orange dye based thermal shift assay (reference value: 66.32 degreeC).
Target sequence in this assay (Q9NXA8 37-310 limits assumed): as above
The target in assay [4] is T2, NAD-dependent protein deacetylase sirtuin-2 (Homo sapiens, UniProt Q8IXJ6).
T2 sequence (Q8IXJ6 whole entry): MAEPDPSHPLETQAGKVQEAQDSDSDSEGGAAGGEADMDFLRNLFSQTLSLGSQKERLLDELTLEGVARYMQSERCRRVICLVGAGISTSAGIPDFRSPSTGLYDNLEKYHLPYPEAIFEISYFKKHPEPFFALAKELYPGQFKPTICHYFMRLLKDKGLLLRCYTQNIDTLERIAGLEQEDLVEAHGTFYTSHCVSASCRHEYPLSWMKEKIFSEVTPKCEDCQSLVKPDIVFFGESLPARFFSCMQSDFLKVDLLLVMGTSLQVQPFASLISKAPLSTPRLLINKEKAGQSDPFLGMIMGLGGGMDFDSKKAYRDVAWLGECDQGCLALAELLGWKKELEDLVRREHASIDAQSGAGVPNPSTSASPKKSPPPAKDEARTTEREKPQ
Nature of the assay: Inhibition of recombinant SIRT2 (unknown origin) using Ac-Glu-Thr-Asp-Lys (Dec)-AMC as substrate.

For `O=C(O)CCNC(=S)NCCCNc1nc(Nc2ccccc2Cl)ncc1C(=O)Nc1ccccc1`, in assay [1], the IC50 (commonly the concentration needed to halve the response being measured) turned out to be 3.18 µM.

As for `O=C(O)CCNC(=S)NCCCNc1nc(Nc2ccccc2Cl)ncc1C(=O)NC1CCC1`, the IC50 in assay [1] came to 7.93 µM.

Turning to `O=C(O)CCNC(=S)NCCCNc1nc(Nc2ccccc2Cl)ncc1C(=O)N1CCOCC1`, the concentration for half-maximal inhibition (IC50) in assay [1] was 8.6 µM.

`CCOC(=O)c1cnc(Nc2ccccc2OC)nc1NCCCNC(=S)NCCC(=O)O`: the concentration for half-maximal inhibition (IC50) in assay [1] amounted to 10.7 µM.

For the compound `O=C(O)CCNC(=S)NCCCNc1nc(Nc2ccccc2Cl)ncc1C(=O)Nc1cccc2ccccc12`, the IC50 in assay [1] worked out at 2.95 µM.

For the compound `O=C(O)CCNC(=S)NCCCNc1nc(Nc2ccccc2Cl)ncc1C(=O)N[C@H]1CCCC[C@@H]1O`, the IC50 in assay [1] was found to be 8.95 µM.

Turning to `CC(=O)N[C@@H](CC(C)C)C(=O)NCC(=O)N[C@@H](CO)C(=O)N[C@@H](CCCCNC(=O)CCC(=O)O)C(=O)Nc1ccc2c(C)cc(=O)oc2c1` (Ac-LGSK(Suc)-{AMC}), in assay [2], the shift in melting temperature (ΔTm) (in general, the change in melting temperature against a reference sample) was found to be 0.97 °C. Also, the Tm (usually the temperature at which the thermal transition is half complete) in assay [3] was 67.3 °C.

Regarding `CCOC(=O)c1cnc(Nc2c(F)cccc2F)nc1NCCCNC(=S)NCCC(=O)O`, the concentration for half-maximal inhibition (IC50) in assay [1] turned out to be 2.82 µM.

With `O=C(O)CCNC(=S)NCCCNc1nc(Nc2ccccc2Cl)ncc1C(=O)NC1CC1`, the concentration for half-maximal inhibition (IC50) in assay [1] was 9.56 µM.

For the compound `CCOC(=O)c1cnc(Nc2ccccc2-c2ccccc2)nc1NCCCNC(=S)NCCC(=O)O`, in assay [1], the IC50 amounted to 3.98 µM.

As to `O=C(O)CCNC(=S)NCCCNc1nc(Nc2ccccc2Cl)ncc1C(=O)N[C@H]1c2ccccc2C[C@H]1O`, the 50% inhibitory concentration (IC50) in assay [1] turned out to be 4.18 µM.

As to `O=C(O)CCNC(=S)NCCCNc1nc(Nc2ccccc2Cl)ncc1C(=O)N1CCCC(c2ccccc2)C1` (stereo not given), the IC50 in assay [1] was determined as 3.66 µM.

Turning to `COc1ccccc1NC(=O)c1cnc(Nc2ccccc2Cl)nc1NCCCNC(=S)NCCC(=O)O`, in assay [1], the half-inhibitory concentration (IC50) was 5.37 µM.

In the case of `CCOC(=O)c1cnc(Nc2cccc(Br)c2C)nc1NCCCNC(=S)NCCC(=O)O`, in assay [1], the IC50 was determined as 3.48 µM.

As to `CCOC(=O)c1cnc(Nc2cccc(F)c2Cl)nc1NCCCNC(=S)NCCC(=O)O`, the IC50 in assay [1] was found to be 2.39 µM.

As for `CCOC(=O)c1cnc(Nc2cccc(F)c2C)nc1NCCCNC(=S)NCCC(=O)O`, in assay [1], the half-inhibitory concentration (IC50) was 2.38 µM.

As to `CCCNC(=O)c1cnc(Nc2ccccc2Cl)nc1NCCCNC(=S)NCCC(=O)O`, the half-inhibitory concentration (IC50) in assay [1] worked out at 7.83 µM.

As to `O=C(O)CCNC(=S)NCCCNc1nc(Nc2ccccc2Cl)ncc1C(=O)NCc1ccccc1`, the half-maximal inhibitory concentration (IC50) in assay [1] turned out to be 1.11 µM.

With `O=C(O)CCNC(=S)NCCCNc1nc(Nc2ccccc2Cl)ncc1C(=O)NC1(c2ccccc2)CC1`, the IC50 in assay [1] turned out to be 2.8 µM.

For `CCOC(=O)c1cnc(Nc2cccc(C)c2Br)nc1NCCCNC(=S)NCCC(=O)O`, the concentration for half-maximal inhibition (IC50) in assay [1] stood at 2.3 µM.

Regarding `CCOC(=O)c1cnc(Nc2cccc(Cl)c2)nc1NCCCNC(=S)NCCC(=O)O`, in assay [1], the IC50 was found to be 13.4 µM.

As for `O=C(O)CCNC(=S)NCCCNc1nc(Nc2ccccc2Cl)ncc1C(=O)NCCc1cc2ccccc2[nH]1`, the IC50 in assay [1] was 1.43 µM.

For `CCOC(=O)c1cnc(Nc2ccccc2)nc1NCCCNC(=S)NCCC(=O)O`, the IC50 in assay [1] stood at 7.67 µM.

For `CC(CCc1ccccc1)NC(=O)c1cnc(Nc2ccccc2Cl)nc1NCCCNC(=S)NCCC(=O)O` (stereo not given), the IC50 in assay [1] came to 1.6 µM.

`CCOC(=O)c1cnc(Nc2cccc(OC)c2)nc1NCCCNC(=S)NCCC(=O)O`: the IC50 in assay [1] amounted to 17.1 µM.

On to `O=C(O)CCNC(=S)NCCCNc1nc(Nc2ccccc2Cl)ncc1C(=O)N[C@@H]1C[C@H]1c1ccccc1`, for which the IC50 in assay [1] stood at 2.54 µM.

As to `O=C(O)CCNC(=S)NCCCNc1nc(Nc2ccccc2Cl)ncc1C(=O)N1CCC(c2ccccc2)CC1`, the IC50 in assay [1] came to 3.54 µM.

With `CC(C)(C)OC(=O)[C@@H](NC(=O)c1cnc(Nc2ccccc2Cl)nc1NCCCNC(=S)NCCC(=O)O)c1ccccc1`, in assay [1], the concentration for half-maximal inhibition (IC50) came to 1.55 µM.

Take `CC(C)(C)OC(=O)[C@H](NC(=O)c1cnc(Nc2ccccc2Cl)nc1NCCCNC(=S)NCCC(=O)O)c1ccccc1`: the IC50 in assay [1] turned out to be 1.82 µM.

For `CC[C@H](NC(=O)c1cnc(Nc2ccccc2Cl)nc1NCCCNC(=S)NCCC(=O)O)c1ccccc1`, in assay [1], the concentration for half-maximal inhibition (IC50) came out at 3.72 µM.

Take `CC[C@@H](NC(=O)c1cnc(Nc2ccccc2Cl)nc1NCCCNC(=S)NCCC(=O)O)c1ccccc1`: the IC50 in assay [1] was found to be 0.58 µM.

As to `Cc1ccccc1NC(=O)c1cnc(Nc2ccccc2Cl)nc1NCCCNC(=S)NCCC(=O)O`, the IC50 in assay [1] came out at 5.45 µM.

In the case of `CCOC(=O)c1cnc(Nc2ccccc2C)nc1NCCCNC(=S)NCCC(=O)O`, the 50% inhibitory concentration (IC50) in assay [1] worked out at 3.53 µM.

Consider `CC(C)c1ccccc1NC(=O)c1cnc(Nc2ccccc2Cl)nc1NCCCNC(=S)NCCC(=O)O`, for which, in assay [1], the half-inhibitory concentration (IC50) was 2.82 µM.

For the compound `CCOC(=O)c1cnc(Nc2cc(OC)cc(OC)c2)nc1NCCCNC(=S)NCCC(=O)O`, in assay [1], the half-inhibitory concentration (IC50) is 6.9 µM.

As for `CCOC(=O)c1cnc(Nc2ccc(Cl)cc2)nc1NCCCNC(=S)NCCC(=O)O`, in assay [1], the IC50 was determined as 9.4 µM.

Consider `CCOC(=O)c1cnc(Nc2ccc(C)cc2)nc1NCCCNC(=S)NCCC(=O)O`, for which the IC50 in assay [1] was 11.6 µM.

With `CCOC(=O)c1cnc(Nc2ccc(Br)cc2C)nc1NCCCNC(=S)NCCC(=O)O`, the concentration for half-maximal inhibition (IC50) in assay [1] is 2.7 µM.

On to `COC(=O)c1cnc(Nc2ccccc2Cl)nc1NCCCNC(=S)NCCC(=O)O`, for which the IC50 in assay [1] was found to be 3.34 µM.

`CCOC(=O)c1cnc(Nc2cccc(Br)c2)nc1NCCCNC(=S)NCCC(=O)O`: the concentration for half-maximal inhibition (IC50) in assay [1] came out at 22 µM.

As to `CCOC(=O)c1cnc(Nc2ccccc2Br)nc1NCCCNC(=S)NCCC(=O)O`, the half-maximal inhibitory concentration (IC50) in assay [1] is 4.06 µM.

As for `O=C(O)CCNC(=S)NCCCNc1nc(Nc2ccccc2Cl)ncc1C(=O)N1CCCC1`, in assay [1], the IC50 was 21.5 µM.

In the case of `CCOC(=O)c1cnc(Nc2ccc(Br)cc2)nc1NCCCNC(=S)NCCC(=O)O`, in assay [1], the IC50 was 7.52 µM.

`CCOC(=O)c1cnc(Nc2ccc(F)cc2)nc1NCCCNC(=S)NCCC(=O)O`: the concentration for half-maximal inhibition (IC50) in assay [1] was determined as 7.54 µM.

As for `CCOC(=O)c1cnc(Nc2cccc(F)c2)nc1NCCCNC(=S)NCCC(=O)O`, in assay [1], the half-inhibitory concentration (IC50) was found to be 9.57 µM.

On to `COc1cc(NC(=O)c2cnc(Nc3ccccc3Cl)nc2NCCCNC(=S)NCCC(=O)O)cc(OC)c1`, for which, in assay [1], the 50% inhibitory concentration (IC50) was 1.54 µM.

For the compound `O=C(O)CCNC(=S)NCCCNc1nc(Nc2ccccc2Cl)ncc1C(=O)N[C@@H](Cc1ccccc1)C(=O)O`, the IC50 in assay [1] was 1.71 µM.

For `O=C(O)CCNC(=S)NCCCNc1nc(Nc2ccccc2Cl)ncc1C(=O)Nc1ccc2ccccc2c1`, the IC50 in assay [1] was 5.15 µM.

With `CC(C)OC(=O)c1cnc(Nc2ccccc2Cl)nc1NCCCNC(=S)NCCC(=O)O`, the half-maximal inhibitory concentration (IC50) in assay [1] was determined as 2.77 µM.

For `CCOC(=O)c1cnc(Nc2ccccc2Cl)nc1NCCCNC(=S)NCCC(=O)O`, in assay [1], the half-inhibitory concentration (IC50) amounted to 1.9 µM.

Turning to `CCOC(=O)c1cnc(Nc2ccccc2F)nc1NCCCNC(=S)NCCC(=O)O`, the concentration for half-maximal inhibition (IC50) in assay [1] is 5.87 µM.

For `CC(C)CNC(=O)c1cnc(Nc2ccccc2Cl)nc1NCCCNC(=S)NCCC(=O)O`, in assay [1], the 50% inhibitory concentration (IC50) was 6.72 µM.

Regarding `O=C(O)CCNC(=S)NCCCNc1nc(Nc2ccccc2Cl)ncc1C(=O)N1CC[C@H](c2ccccc2)C1`, the IC50 is 0.31 µM in assay [1] and 39.6 µM in assay [4].

As for `O=C(O)CCNC(=S)NCCCNc1nc(Nc2ccccc2Cl)ncc1C(=O)N[C@@H]1C[C@H]1c1ccc(F)c(F)c1`, the IC50 in assay [1] was determined as 1.24 µM.

Regarding `C[C@H](NC(=O)c1cnc(Nc2ccccc2Cl)nc1NCCCNC(=S)NCCC(=O)O)c1ccccc1`, the IC50 in assay [1] was found to be 1.74 µM.

With `CCOC(=O)c1cnc(Nc2ccc(OC)cc2)nc1NCCCNC(=S)NCCC(=O)O`, the IC50 in assay [1] came out at 10.5 µM.

On to `O=C(O)CCNC(=S)NCCCNc1nc(Nc2ccccc2Cl)ncc1C(=O)N1CCC(c2ccccc2)C1` (stereo not given), for which the IC50 in assay [1] came to 0.53 µM.

As to `O=C(O)CCNC(=S)NCCCNc1nc(Nc2ccccc2Cl)ncc1C(=O)Nc1ccccc1-c1ccccc1`, in assay [1], the half-maximal inhibitory concentration (IC50) amounted to 4.84 µM.

Regarding `C[C@@H](NC(=O)c1cnc(Nc2ccccc2Cl)nc1NCCCNC(=S)NCCC(=O)O)c1ccccc1`, the half-inhibitory concentration (IC50) in assay [1] was determined as 1.08 µM.

In the case of `O=C(O)CCNC(=S)NCCCNc1nc(Nc2ccccc2Cl)ncc1C(=O)O`, the IC50 in assay [1] was 1.64 µM.

Regarding `CCOC(=O)c1cnc(Nc2cccc(C)c2)nc1NCCCNC(=S)NCCC(=O)O`, the concentration for half-maximal inhibition (IC50) in assay [1] was 16.9 µM.

As for `CCOC(=O)c1cnc(Nc2c(C)cccc2C)nc1NCCCNC(=S)NCCC(=O)O`, the IC50 in assay [1] was determined as 3.16 µM.

Regarding `O=C(O)CCNC(=S)NCCCNc1nc(Nc2ccccc2Cl)ncc1C(=O)N1CCCC1c1ccccc1` (stereo not given), the IC50 in assay [1] was 27.3 µM.
